Patent publication US20120115804A1, “COMPOSITIONS AND METHODS FOR CHARACTERIZING AND TREATING NEOPLASIA” (The John Hopkins University, priority 2009, published 2012)
“Also recorded” adds a separate entry of the source. Like-named read-outs stand apart in the source and are kept apart here.

Columns and labels:
VDRE containing genes = experiment: Expression of VDRE-containing genes after treatment in vitro; format: cell-based, human
Description: FIGS. 6A-6C show expression levels of VDR Response Element (VDRE)-containing genes in primary breast cancer and normal breast tissue. […] Assays were performed in triplicate on a total of 8 breast cancers and 3 normal organoid preparations. […] Means and standard deviations are shown. Significant differences between normal and cancer are indicated (* p<0.05; ** p<0.01). […] The bars represent the fold induction of VDR downstream gene targets (CYP3A4[24/25OH]-white, CYP27B1[1OH]-grey, and C/EBP-hatched) over untreated control (horizontal line=1.0). Means and standard deviations of triplicate experiments are shown (* p<0.05; ** p<0.01).

VDR = experiment: Quantitative Real-Time PCR of total VDR expression in breast cell lines; details: 96 hours, V primer set
Description: (§1) Human breast cell lines were obtained from American Type Culture Collection (Rockville, Md.) and propagated as described 17. For pharmacological assays, 1.0×10^6 cells were seeded in 25 cm^2 tissue culture flasks.
PCR was then performed for 40 cycles using gene-specific primers. To determine total VDR levels, pre-mixed “Assay on Demand” primer-probe sets for VDR (Hs01045843_m1) and GAPDH (Hs99999905_m1) and the GeneAmp® Fast PCR Master Mix were purchased from Applied Biosystems (Foster City, Calif.) and cDNA was amplified following the manufacturer's instructions in the ABI PRISM 7900HT instrument.

VDR variants = details: after treatment; for levels of V1 and V2 VDR variants (active transcripts): all the breast cell lines
Description: The V1d primers, spanning exon 1d and the junction of exon 1c and exon 2, were designed to recognize the transcript variants v1d, V1d′ and v1d″ (FIG. 1). In order to detect all of these variants, the nonspecific V6 primers, spanning exon 3 and exon 4, were used.
The PCR products were separated on 2% agarose gels, scanned in a Gel Doc Imager (BioRad, Philadelphia, Pa.), and quantified using Image Quant software (BioRad, Philadelphia, Pa.).

VDR promoter = details: 96 hours, all breast cell lines
Description: To determine whether the VDR gene promoter was hypermethylated in breast cancer, bisulfite sequencing was performed in the region 790 bp upstream to 380 bp downstream of the VDR transcription start site after treatment of cells in the presence or absence of AZA for ninety six hours (see FIG. 3).
PCR products were separated electrophoretically and isolated using a PCR purification kit (Qiagen, Valencia, Calif.). DNA was sequenced using the M13 Reverse Primer with an Applied Biosystems automated fluorescent sequencer according to the manufacturer's instructions. Percent DNA methylation was determined using the ratio of cytidine to thymidine traces at CpG dinucleotides.

VDR mRNA = details: placental carcinoma cell lines; Pospechova et al. 2009; cited from earlier work
[1] = test system: breast cancer cell lines (HS578T, 21PT, MCF7, and T47D) and the immortalized normal breast epithelial cell line HBL100; details: 96 hours, Calcitriol 1.5 μM, AZA 10 μM, alone or combined, five breast cell lines, vs vehicle control
Description: Cell viability was measured by MTT assay.
as §1
Cell viability was measured using the Cell Titer 96 AQ-One Solution Cell Proliferation Assay kit from Promega Corporation (Madison, Wis.). Formazan absorbance was read at 490 nm in a 96-well plate reader.

| Compound | expression of VDRE containing genes (VDRE containing genes) | overall expression level of VDR (total VDR transcripts) (VDR) | levels of V1 and V2 VDR variants (active transcripts) (VDR variants) | levels of V1 and V2 VDR variants (active transcripts) (VDR variants; listed as 5′ dAZA) | V1d and V1d′ VDR variants, response to demethylation (VDR variants; breast cell lines) | methylation of the CpG islands in the VDR promoter (VDR promoter) | methylation of the CpG islands in the VDR promoter (VDR promoter; listed as 5′ dAZA) | VDR mRNA expression (VDR mRNA) | cell viability / growth inhibition [1] | cell viability / growth inhibition ([1]; listed as VTD) |
| --- | --- | --- | --- | --- | --- | --- | --- | --- | --- | --- |
| 5′ deoxy-azacytidine | concurrent increase | parallel increase | significantly increased; also recorded: induced the re-expression | restored | less responsive | induced demethylation | demethylated | re-expression | restoration of sensitivity | – |
| C=C1/C(=C\C=C2/CCC[C@]3(C)[C@@H]([C@H](C)CCCC(C)(C)O)CC[C@@H]23)C[C@@H](O)C[C@@H]1O [Calcitriol, 1,25-dihydroxyvitamin D3] | – | – | – | – | – | – | – | – | minimal effects; also recorded: insensitivity | ineffective |
